# According to PMC10045534, “Preparation and Evaluation of 6-Gingerol Derivatives as Novel Antioxidants and Antiplatelet Agents” (Antioxidants, 2023):
# Columns and labels:
# xanthine oxidase (XO) = target: T1, xanthine oxidase (XO) (Bos taurus, UniProt P80457); assay: Xanthine oxidase inhibition, spectrophotometric; format: biochemical; conditions: read-out: XO Inhibition (%)
# T1 construct: purchased Sigma (Merck KGaA)
# Description: The xanthine oxidase (XO) inhibitory activity of the compounds was determined using continuous spectrophotometric rate based on a modified protocol of Sigma. […]. In a 96-well plate, the final reaction mixture consisted of 10 µL of sample (dissolved in DMSO, […] stock solution, 100 µM final), 100 µL of xanthine solution (0.15 mM, pH = 7.4), 140 µL of buffer (potassium phosphate, pH = 7.5) and 50 µL of XO (0.2 units/mL). When measuring the enzyme activity, control buffer was used in place of the sample. Allopurinol was applied as a control. The reaction was initiated by the automatic addition of 50 µL of XO solution. The absorbance of XO-induced uric acid production from xanthine was measured at 290 nm for 3 min in a 96-well plate on a BMG Labtech FluoStar Optima plate reader. The inhibitory percentage values were calculated by using Graph Pad Prism 8.0 (La Jolla, CA, USA).
# [1] = Peroxynitrite scavenging (pyrogallol red); conditions: % inhibition at 500 µM; mean ± SEM, n = 3
# Description: Peroxynitrite was synthesised by a continuous flow system using syringe pumps as published previously. Briefly, an acidic solution of hydrogen peroxide (0.6 M H2O2, 0.7 M HCl) was pumped to a junction alongside of sodium nitrite solution (0.6 M) at a flow rate of 1.5 mL/min. After passing 10 cm of tubing, it was mixed with a sodium hydroxide solution (1.5 M), also pumped at 1.5 mL/min. The resulting peroxynitrite solution was a bright yellow colour. The tubing around the reaction was submerged in ice. The concentration of the solution was determined by spectrophotometry and was adjusted to 30 mM with 0.1 M NaOH solution.
# In a 96-well microplate 245 µL of pyrogallol red (100 µM final concentration, dissolved in 0.1 M glycine buffer) was mixed with 50 µL of sample (0.5 mM final concentration, dissolved in DMSO) and 5 µL ONOO^– solution (500 µM final concentration, freshly prepared). After mixing and keeping it at room temperature for 30 min the absorbance was measured at 550 nm using a FluoStar Optima plate reader (software version 2.20R2, BMG Labtech, Ortenberg, Germany).
# [2] = DPPH free radical scavenging assay; conditions: for IC50: 30 min, room temperature, MeOH, mean ± SEM, n = 2, read-out: DDPH IC50
# Description: All bioactivity data processing, including the calculation of inhibition percentage, mean and corresponding standard error of the mean (SEM), and IC50 values, was performed by GraphPad Prism 8.0 (La Jolla, CA, USA). IC50 values were calculated from the sigmoidal dose–response curves obtained by the log(inhibitor) vs. response and variable slope (DPPH assay) or the log(inhibitor) vs. normalised response and variable slope nonlinear regression model. On the results obtained, no statistical evaluation was performed; instead, differences greater than two-fold were considered relevant. Plotting of the antiplatelet and COX-1 inhibitory IC50 values and the linear regression of the data was performed by Microsoft Excel.
# DPPH (1,10-diphenyl-2-picrylhydrazyl) was purchased from Thermo Fisher Scientific. DPPH free radical scavenging assay was performed with some modifications based on the method by previous study. Briefly, in a 96-well microplate, microdilutions of samples (100 µL, starting from 200 µM in HPLC grade MeOH) were made and 100 µL of DPPH reagent (100 µM in MeOH) was added. After 30 min at room temperature in the dark, the absorbance was measured at 550 nm using a FluoStar Optima plate reader (software version 2.20R2, BMG Labtech Ortenberg, Germany). For the blank control, MeOH was used. The scavenging activity was calculated as Inhibition (%) = (A0 − As)/A0 × 100, and IC50 values were calculated by GraphPad Prism 8.0 (La Jolla, CA, USA).
# COX-1 enzyme = target: T2, COX-1 enzyme (Ovis aries, UniProt P05979); assay: COX-1 inhibitor screening kit, fluorometric (BioVision K548-100); format: biochemical; conditions: for LLE(COX-1): LLE = pIC50 − logPpredicted; for IC50: mean ± SEM, n = 2
# T2 construct: purchased BioVision (via VWR International Kft.) K548-100
# T2 sequence (P05979 25-600): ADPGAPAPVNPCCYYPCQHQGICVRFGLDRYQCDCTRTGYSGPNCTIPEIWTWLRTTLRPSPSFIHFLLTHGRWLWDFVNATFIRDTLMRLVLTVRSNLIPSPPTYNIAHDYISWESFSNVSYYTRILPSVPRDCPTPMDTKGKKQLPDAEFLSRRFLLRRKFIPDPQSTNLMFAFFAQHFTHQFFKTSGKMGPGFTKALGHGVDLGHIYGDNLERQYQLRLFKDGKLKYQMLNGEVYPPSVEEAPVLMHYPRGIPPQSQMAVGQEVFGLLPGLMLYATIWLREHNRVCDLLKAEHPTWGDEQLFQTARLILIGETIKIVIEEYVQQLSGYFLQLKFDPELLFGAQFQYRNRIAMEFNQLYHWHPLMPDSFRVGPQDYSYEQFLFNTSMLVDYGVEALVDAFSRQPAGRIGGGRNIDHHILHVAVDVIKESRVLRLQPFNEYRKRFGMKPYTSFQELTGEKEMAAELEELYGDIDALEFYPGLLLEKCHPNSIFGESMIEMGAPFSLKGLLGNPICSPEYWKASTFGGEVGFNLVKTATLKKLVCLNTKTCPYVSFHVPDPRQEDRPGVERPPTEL
# Description: COX-1 inhibitory activity was tested based on the fluorometric method as described in BioVision’s COX-1 inhibitor screening kit leafkit (K548-100, BioVision, CA, USA). Sample solutions were prepared by dissolving in DMSO and subsequently buffer, to get desired concentrations. In a 96-well white plate (655101, F-bottom, Grenier bio-one, Germany), 80 µL reaction mix (containing 76 µL assay buffer, 1 µL COX Probe, 2 µL COX cofactor, and 1 µL COX-1 enzyme) was added to 10 µL sample solution, DMSO and assay buffer to get test wells assigned for sample screen (S), negative control (N) and blank, respectively. An aliquot of 10 µL of arachidonic/NaOH solution was added to each well using a multi-channel pipette to initiate the reaction at the same time, and the fluorescence of each well was measured kinetically at Ex/Em 550/610 nm, at 25OC for 10 min using a FluoStar Optima plate reader (BMG Labtech, Ortenberg, Germany). The COX inhibitory activity of SC560, a standard inhibitor, was also determined.
# The change in fluorescence between two points, T1 and T2 were determined, and relative inhibition was calculated according to the following equation:% Inhibition = (ΔN − ΔS)/ΔN × 100 (1) where N is the absorbance of the negative control, and S is that of the sample.
# Dose-effect studies on the compounds were used to determine the concentration that inhibits 50% of the enzyme activity. The sigmoidal dose–response model was obtained by using the software GraphPad Prism 8.0 (La Jolla, CA, USA), and these were used to determine the IC50 values of the compounds.
# T1 sequence (P80457 2-1332 limits assumed): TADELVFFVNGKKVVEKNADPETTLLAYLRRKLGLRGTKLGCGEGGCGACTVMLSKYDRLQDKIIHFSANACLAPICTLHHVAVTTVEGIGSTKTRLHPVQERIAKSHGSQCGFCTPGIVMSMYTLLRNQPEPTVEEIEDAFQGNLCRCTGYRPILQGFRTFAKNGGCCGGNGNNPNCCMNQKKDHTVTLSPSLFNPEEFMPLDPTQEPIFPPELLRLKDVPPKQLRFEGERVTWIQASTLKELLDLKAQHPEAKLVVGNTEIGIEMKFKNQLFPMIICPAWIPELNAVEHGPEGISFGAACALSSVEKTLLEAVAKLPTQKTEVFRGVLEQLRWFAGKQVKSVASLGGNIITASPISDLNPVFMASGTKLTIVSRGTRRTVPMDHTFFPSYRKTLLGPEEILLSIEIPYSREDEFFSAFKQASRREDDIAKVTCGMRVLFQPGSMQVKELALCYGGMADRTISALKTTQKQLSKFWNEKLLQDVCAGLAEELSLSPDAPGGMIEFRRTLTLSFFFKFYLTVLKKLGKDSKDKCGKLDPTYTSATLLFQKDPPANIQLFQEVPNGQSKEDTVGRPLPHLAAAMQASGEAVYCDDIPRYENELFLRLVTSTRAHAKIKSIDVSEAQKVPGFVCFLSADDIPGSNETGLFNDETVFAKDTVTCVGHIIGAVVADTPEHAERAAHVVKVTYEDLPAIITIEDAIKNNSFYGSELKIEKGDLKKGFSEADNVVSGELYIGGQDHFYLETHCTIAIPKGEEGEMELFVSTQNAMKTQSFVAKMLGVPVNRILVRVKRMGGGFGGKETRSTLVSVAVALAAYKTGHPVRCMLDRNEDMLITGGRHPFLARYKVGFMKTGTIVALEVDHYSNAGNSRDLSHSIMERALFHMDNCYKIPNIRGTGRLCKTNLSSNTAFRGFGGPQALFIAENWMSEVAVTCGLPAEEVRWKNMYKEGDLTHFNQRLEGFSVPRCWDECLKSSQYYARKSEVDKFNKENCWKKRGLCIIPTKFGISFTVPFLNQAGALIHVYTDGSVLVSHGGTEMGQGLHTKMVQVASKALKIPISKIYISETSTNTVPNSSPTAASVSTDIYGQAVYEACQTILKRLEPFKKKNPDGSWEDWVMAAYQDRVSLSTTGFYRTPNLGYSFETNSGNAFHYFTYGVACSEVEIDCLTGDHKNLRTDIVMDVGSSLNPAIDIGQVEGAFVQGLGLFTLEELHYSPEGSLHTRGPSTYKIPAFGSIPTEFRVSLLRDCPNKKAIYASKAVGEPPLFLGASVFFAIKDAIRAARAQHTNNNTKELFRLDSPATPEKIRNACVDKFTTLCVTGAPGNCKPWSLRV
inhibition at 100 µM (xanthine oxidase (XO)) [%],IC50 [2] [µM],LLE(COX-1) (COX-1 enzyme),IC50 (COX-1 enzyme) [µM],Structure (SMILES),ONOO^– Scavenging (%) [1] [%],DPPH scavenging activity (in words) [2]
< 5,11.4 ± 0.49,0.81,9.8 ± 0.6,"CCCCC/C=C/C(=O)CCc1ccc(O)c(OC)c1 [Compound 2, 6-shogaol]",<5.0,–
10.6 ± 2.3,8.56 ± 0.07,0.48,5.2 ± 0.3,"CCCCCCCC(CCc1ccc(O)c(OC)c1)=NO [Compound 4, 1-(4-hydroxy-3-methoxyphenyl)decan-3-one oxime]",<5.0,–
< 5,9.43 ± 0.16,1.26,4.4 ± 0.2,"CCCCCCCC(=O)CCc1ccc(O)c(OC)c1 [Compound 3, 4,5-dihydro-6-shogaol]",<5.0,–
16 ± 4.05,19 ± 1.63,−0.04,17.5 ± 0.1,"CCCCCc1cc(/C=C/c2ccc(O)cc2)[nH]n1 [Compound 16, (E)-4-(2-(3-pentyl-1H-pyrazol-5-yl)vinyl)phenol]",<5.0,–
10.1 ± 1.65,16.2 ± 0.46,0.74,3.6 ± 0.2,"CCCCCc1cc(CCc2ccc(O)c(OC)c2)[nH]n1 [Compound 14, 2-methoxy-4-(2-(3-pentyl-1H-pyrazol-5-yl)ethyl)phenol]",<5.0,–
< 5,8.13 ± 0.21,0.83,5.85 ± 0.04,"CCCCCc1cc(/C=C/c2ccc(O)c(OC)c2)on1 [Compound 17, (E)-2-methoxy-4-(2-(3-pentylisoxazol-5-yl)vinyl)phenol]",38.40 ± 3.05,–
< 5,6.51 ± 0.28,1.27,54.3 ± 6.5,"CCCCC[C@H](O)C[C@H](O)CCc1ccc(O)c(OC)c1 [Compound 5, (3R,5S)-1-(4-hydroxy-3-methoxyphenyl)decane-3,5-diol]",<5.0,–
< 5,13.82 ± 0.03,1.12,76.2 ± 0.3,"CCCCC[C@H](O)C[C@@H](O)CCc1ccc(O)c(OC)c1 [Compound 6, (3S,5S)-1-(4-hydroxy-3-methoxyphenyl)decane-3,5-diol]",<5.0,–
< 5,> 100,–,> 200,"CCCCCc1cc(/C=C/c2ccc(O)cc2)on1 [Compound 18, (E)-4-(2-(3-pentylisoxazol-5-yl)vinyl)phenol]",5.64 ± 1.31,inactive
12.3 ± 0.9,> 200,–,> 200,"CCCCCc1cc(CCc2ccc(O)cc2)[nH]n1 [Compound 15, 4-(2-(3-pentyl-1H-pyrazol-5-yl)ethyl)phenol]",<5.0,inactive
< 5,8.92 ± 0.46,1.30,62.5 ± 23.8,"CCCCC[C@H](O)CC(=O)CCc1ccc(O)c(OC)c1 [Compound 1, (S)-5-hydroxy-1-(4-hydroxy-3-methoxyphenyl)decan-3-one]",<5.0,–
< 5,14.1 ± 0.21,–,> 100,CCCCCCCNC(=O)CCc1ccc(O)c(OC)c1 [Compound 22],<5.0,–
